Here are results for one molecule from paper PMC9099121, “Population pharmacokinetic and exposure‐response analyses from ALTA‐1L: Model‐based analyses supporting the brigatinib dose in ALK‐positive NSCLC” (Clinical and Translational Science, 2022).

The experiment deals with ALK+ NSCLC. Kind of experiment: Exposure-ORR/iORR logistic regression, ALTA-1L. It counts as in vivo, human. An excerpt:
The exposure‐efficacy analyses related reported efficacy outcomes (blinded IRC [BIRC]‐assessed PFS, ORR, and iORR) to individual brigatinib exposures predicted using individual estimated PK parameters from the population PK model. Model‐based estimates of CL/F and actual dosing history were used to derive exposure metrics of interest. Several exposure metrics were considered, including both static and dynamic area under the concentration‐time curve (AUC) estimates (Methods S1).
For ORR and iORR, each patient was classified as a responder (i.e., achieving confirmed complete or partial systemic ORR or iORR response) or a nonresponder. Relationships between ORR and iORR and brigatinib exposure were analyzed using two static exposure metrics: time‐averaged AUC between the last two disease assessment scans preceding best confirmed response and time‐averaged AUC until best confirmed response (ORR or iORR). Exposure–clinical response relationships were characterized by logistic regression models. Predicted logistic regression curve and observed response rate in each brigatinib exposure quartile or tertile (along with associated 95% CIs) were plotted.
Time averaged AUC until best confirmed response (ORR or iORR)= Cumulative dose to best confirmed systemic ORR or intracranial iORR responseOral brigatinib clearance/ (days to best confirmed systemic or intracranial response)
Static metrics of time-averaged exposure between the last two disease assessment scans preceding PFS, ORR, or iORR, or censoring (refer to 2)

Each structure is given as a SMILES string.

In the case of `COc1cc(N2CCC(N3CCN(C)CC3)CC2)ccc1Nc1ncc(Cl)c(Nc2ccccc2P(C)(C)=O)n1` [brigatinib], the “Estimated probability of iORR” value was 0.58 (5th exposure percentile following 180 mg dosing); 0.83 (50th (median) exposure percentile following 180 mg dosing); 0.83 (0.58–0.99) (50th (median) exposure percentile following 180 mg dosing, listed as Brigatinib); 0.99 (95th exposure percentile following 180 mg dosing). Moreover, the “Odds ratio for probability of achieving iORR versus exposure” value (time-averaged AUC between the last two disease assessments preceding best confirmed intracranial response, 95% CI: 1.01–1.28, p = 0.049, n = 42) was found to be 1.13. Also, the “Odds ratio for probability of achieving ORR versus exposure” value reads like this: (time-averaged AUC between the last two disease assessments preceding best confirmed objective response, 95% CI: 0.93–1.01, p = 0.108) 0.97; (time-averaged AUC until the first best confirmed response, p = 0.13) 0.97 [0.94–1.01]. Also, the “Odds ratio for probability of iORR versus exposure” value (time-averaged AUC until the first best confirmed response, p = 0.15) was 1.09 [0.98–1.23].
